Results reported in patent US20050202973A1, “Aryl-alkyne compounds as herbicides” (priority 2002, published 2005).

How the values were obtained:
Type in all cases: in vivo
[1] = test system: Euphorbia (Euph); experiment: Post-emergence herbicidal action (Example B2); design: key: 1=total damage; 9=no action; Ratings of from 1 to 4 (especially from 1 to 3) indicate good to very good herbicidal action; settings: 1000 g of active compound per ha; post-emergence spray at 2- to 3-leaf stage; evaluated after 2 to 3 weeks; scale 1=total damage, 9=no action
Description: (§1) Monocotyledonous and dicotyledonous test plants are sown in standard soil in pots. When the test plants are at the 2- to 3-leaf stage, the test compounds, in the form of an aqueous suspension (prepared from a wettable powder (Example F3, b) according to WO 97/34485) or in the form of an emulsion (prepared from an emulsifiable concentrate (Example F1, c) according to WO 97/34485), are applied by spraying, in an optimum concentration (500 litres of water per ha). The test plants are then grown on in a greenhouse under optimum conditions. After a test duration of 2 to 3 weeks, the test is evaluated in accordance with a scale of nine ratings (1=total damage, 9=no action). Ratings of from 1 to 4 (especially from 1 to 3) indicate good to very good herbicidal action. Test plants. Panicum (Pani), Euphorbia (Euph), Abutilon (Abut), Amaranthus (Amara), Stellaria (Stell), Veronica (Vero).

[2] = test system: Amaranthus (Amara); experiment: Post-emergence herbicidal action (Example B2); design: key: 1=total damage; 9=no action; Ratings of from 1 to 4 (especially from 1 to 3) indicate good to very good herbicidal action; settings: 1000 g of active compound per ha; post-emergence spray at 2- to 3-leaf stage; evaluated after 2 to 3 weeks; scale 1=total damage, 9=no action
Description: as §1

[3] = test system: Stellaria (Stell); experiment: Post-emergence herbicidal action (Example B2); design: key: 1=total damage; 9=no action; Ratings of from 1 to 4 (especially from 1 to 3) indicate good to very good herbicidal action; settings: 1000 g of active compound per ha; post-emergence spray at 2- to 3-leaf stage; evaluated after 2 to 3 weeks; scale 1=total damage, 9=no action
Description: as §1

[4] = test system: Panicum (Pani); experiment: Post-emergence herbicidal action (Example B2); design: key: 1=total damage; 9=no action; Ratings of from 1 to 4 (especially from 1 to 3) indicate good to very good herbicidal action; settings: 1000 g of active compound per ha; post-emergence spray at 2- to 3-leaf stage; evaluated after 2 to 3 weeks; scale 1=total damage, 9=no action
Description: as §1

[5] = test system: Abutilon (Abut); experiment: Post-emergence herbicidal action (Example B2); design: key: 1=total damage; 9=no action; Ratings of from 1 to 4 (especially from 1 to 3) indicate good to very good herbicidal action; settings: 1000 g of active compound per ha; post-emergence spray at 2- to 3-leaf stage; evaluated after 2 to 3 weeks; scale 1=total damage, 9=no action
Description: as §1

[6] = test system: Euphorbia (Euph); experiment: Pre-emergence herbicidal action (Example B1); design: key: 1=total damage; 9=no action; Ratings of from 1 to 4 (especially from 1 to 3) indicate good to very good herbicidal action; settings: 1000 g of active compound per ha; sprayed immediately after sowing; evaluated after 4 weeks; scale of nine ratings (1=total damage, 9=no action)
Description: (§2) Monocotyledonous and dicotyledonous test plants are sown in standard soil in pots. Immediately after sowing, the test compounds, in the form of an aqueous suspension (prepared from a wettable powder (Example F3, b) according to WO 97/34485) or in the form of an emulsion (prepared from an emulsifiable concentrate (Example F1, c) according to WO 97/34485), are applied by spraying, in an optimum concentration (500 litres of water per ha). The test plants are then grown in a greenhouse under optimum conditions. After a test duration of 4 weeks, the test is evaluated in accordance with a scale of nine ratings (1=total damage, 9=no action). Ratings of from 1 to 4 (especially from 1 to 3) indicate good to very good herbicidal action. Test plants: Panicum (Pani), Digitaria (Digit), Euphorbia (Euph), Sida, Abutilon (Abut), Amaranthus (Amar), Chenopodium (Cheno), Stellaria (Stell).

[7] = test system: Stellaria (Stell); experiment: Pre-emergence herbicidal action (Example B1); design: key: 1=total damage; 9=no action; Ratings of from 1 to 4 (especially from 1 to 3) indicate good to very good herbicidal action; settings: 1000 g of active compound per ha; sprayed immediately after sowing; evaluated after 4 weeks; scale of nine ratings (1=total damage, 9=no action)
Description: as §2

[8] = test system: Panicum (Pani); experiment: Pre-emergence herbicidal action (Example B1); design: key: 1=total damage; 9=no action; Ratings of from 1 to 4 (especially from 1 to 3) indicate good to very good herbicidal action; settings: 1000 g of active compound per ha; sprayed immediately after sowing; evaluated after 4 weeks; scale of nine ratings (1=total damage, 9=no action)
Description: as §2

[9] = test system: Abutilon (Abut); experiment: Pre-emergence herbicidal action (Example B1); design: key: 1=total damage; 9=no action; Ratings of from 1 to 4 (especially from 1 to 3) indicate good to very good herbicidal action; settings: 1000 g of active compound per ha; sprayed immediately after sowing; evaluated after 4 weeks; scale of nine ratings (1=total damage, 9=no action)
Description: as §2

[10] = test system: Chenopodium (Cheno); experiment: Pre-emergence herbicidal action (Example B1); design: key: 1=total damage; 9=no action; Ratings of from 1 to 4 (especially from 1 to 3) indicate good to very good herbicidal action; settings: 1000 g of active compound per ha; sprayed immediately after sowing; evaluated after 4 weeks; scale of nine ratings (1=total damage, 9=no action)
Description: as §2

[11] = test system: Veronica (Vero); experiment: Post-emergence herbicidal action (Example B2); design: key: 1-9 scale: 1 = total damage, 9 = no action; settings: 1000 g of active compound per ha; post-emergence spray at 2- to 3-leaf stage; evaluated after 2 to 3 weeks; scale 1=total damage, 9=no action
Description: as §1

[12] = test system: Digitaria (Digit); experiment: Pre-emergence herbicidal action (Example B1); design: key: 1=total damage; 9=no action; Ratings of from 1 to 4 (especially from 1 to 3) indicate good to very good herbicidal action; settings: 1000 g of active compound per ha; sprayed immediately after sowing; evaluated after 4 weeks; scale of nine ratings (1=total damage, 9=no action)
Description: as §2

[13] = test system: Amaranthus (Amar); experiment: Pre-emergence herbicidal action (Example B1); design: key: 1=total damage; 9=no action; Ratings of from 1 to 4 (especially from 1 to 3) indicate good to very good herbicidal action; settings: 1000 g of active compound per ha; sprayed immediately after sowing; evaluated after 4 weeks; scale of nine ratings (1=total damage, 9=no action)
Description: as §2

[14] = test system: Sida; experiment: Pre-emergence herbicidal action (Example B1); design: key: 1=total damage; 9=no action; Ratings of from 1 to 4 (especially from 1 to 3) indicate good to very good herbicidal action; settings: 1000 g of active compound per ha; sprayed immediately after sowing; evaluated after 4 weeks; scale of nine ratings (1=total damage, 9=no action)
Description: as §2

SMILES	Post-emergence herbicidal action rating, Euph [1]	Post-emergence herbicidal action rating, Amar [2]	Post-emergence herbicidal action rating, Stell [3]	Post-emergence herbicidal action rating, Pani [4]	Post-emergence herbicidal action rating, Abut [5]	Pre-emergence herbicidal action rating, Euph [6]	Pre-emergence herbicidal action rating, Stell [7]	Pre-emergence herbicidal action rating, Pani [8]	Pre-emergence herbicidal action rating, Abut [9]	Pre-emergence herbicidal action rating, Cheno [10]	Post-emergence herbicidal action rating, Vero [11]	Pre-emergence herbicidal action rating, Digit [12]	Pre-emergence herbicidal action rating, Amar [13]	Pre-emergence herbicidal action rating, Sida [14]
N#CCc1cccc(C#CCOc2ncc(Br)cn2)c1 [Compound 7.006]	1	2	4	5	3	1	1	2	2	1	5	–	–	–
N#CCc1cc(C#CCOc2ncc(Cl)cn2)ccc1F [Compound 7.022]	1	1	3	2	–	3	1	1	1	3	2	1	1	1
N#CCc1cccc(C#CCOc2ncc(Cl)cn2)c1 [7.021]	1	1	3	2	2	–	–	–	–	–	3	–	–	–
N#CCc1cc(C#CCOc2ncc(F)cn2)ccc1F [7.027]	2	2	3	1	4	–	–	–	–	–	4	–	–	–
COc1nccnc1OCC#Cc1cccc(CC#N)c1 [Compound 1.048]	1	1	2	4	3	1	1	4	1	1	2	2	1	1
COc1nc(C)ncc1OCC#Cc1cccc(CC#N)c1 [4.033]	2	3	2	2	3	–	–	–	–	–	4	–	–	–
COc1cncnc1OCC#Cc1cccc(CC#N)c1 [Compound 5.025, {3-[3-(5-methoxy-pyrimidin-4-yloxy)-prop-1-ynyl]-phenyl}-acetonitrile]	1	4	1	2	1	–	–	–	–	–	4	–	–	–
N#CCc1cc(C#CCOc2ncc(Cl)cn2)c(F)cc1F [7.031]	3	2	3	2	3	–	–	–	–	–	2	–	–	–
N#CCc1cccc(C#CCOc2ncc(F)cn2)c1 [7.008]	2	2	2	2	2	–	–	–	–	–	2	–	–	–
COc1nc(Cl)cnc1OCC#Cc1cccc(CC#N)c1 [Compound 1.041, {3-[3-(5-chloro-3-methoxy-pyrazin-2-yloxy)-prop-1-ynyl]-phenyl}-acetonitrile]	1	2	2	2	2	1	1	1	1	1	2	1	1	1
N#CCc1ccc(F)c(C#CCOc2ncc(Cl)cn2)c1 [7.028]	1	1	1	–	–	–	–	–	–	–	2	–	–	–
